Results on one compound are retold here after US8653076B2, “Oxo-substituted imidazo[1,2B]pyridazines, their preparation and use as pharmaceuticals” (Bayer Intellectual Property GmbH, priority 2006, dated 2014).

In assay [1] the test system is interleukin 2 (IL-2) secretion. Briefly: anti-CD3/anti-CD28 antibody-induced IL-2 secretion in human PBMC (ELISA). In kind it is cell-based. The note with it: human PBMC stimulated with anti-CD3 and anti-CD28, 20 hours. How it is done:
The extent to which test substance influence antibody-induced interleukin 2 (IL-2) secretion was investigated in the following test system. IL-2 represents a central cytokine which is produced and released by activated T cells. IL-2 synthesis in the T cells is regulated by a plurality of kinases. An inhibitory effect of substances on kinases leads inter alia to inhibition of IL-2 synthesis and inhibition of the T cell immune response. The cytokine determinations were carried out using an ELISA kit.
Peripheral blood mononuclear cells (PBMC) were isolated from heparinized human whole blood by gradient centrifugation using Histopaque 1077 (Sigma) at room temperature, and the erythrocytes were lyzed hypotonically and, after washing twice in PBS, taken up in cell culture medium (10% fetal inactivated calf serum in RPMI-1640+Glutamax-I [Gibco]).
The 96 well culture plates (Costar) were previously incubated with 100 μl of antibody solution in PBS 0.1 μg/ml in PBS [Gibco]) per well at 4° C. for 18 hours. The antibodies used were anti-CD3 and anti-CD28 monoclonal antibodies (PharMingen). After washing with PBS three times, the plates were charged with 200 μl of the cell suspension (40 000 cells/well). […]
Interleukin-2 was determined using an ELISA kit (Bioscience), and the absorption of the color change was analyzed in a SpectraMax 340 PC (wavelength 450 nm). […]

Another assay deals with T1, protein kinase C theta (Homo sapiens, UniProt Q04759).
T1 construct: purchased ProQinase (Freiburg)
Briefly: PKC-theta HTRF kinase assay. In kind it is biochemical. The note with it: recombinant PKC-theta, 10 μM ATP, read-out: Inhibition of PKC theta IC50. How it is done: Inhibition of the enzymic activity of the protein kinase C theta was determined with the aid of the PKC-theta HTRF assay.
Recombinant PKC-theta protein was purchased from ProQinase (Freiburg). The kinase substrate used was the biotinylated peptide having the amino acid sequence biotin-RFARKGSLRQKNVHEVK, which was purchased from Biosynthan (Berlin).
PKC-theta [0.7 nM in the assay mixture, assay volume 5 μl] was incubated at 22° C. for 15 min in the presence of various concentrations of test substances (0 μM, and 10 measurement points within the range 0.001-20 μM in duplicates) in assay buffer [50 mM Hepes/NaOH pH 7.4, 1.0 mM MnCl2, 10.0 mM MgCl2, 1.0 mM dithiothreitol, 0.1 mM sodium orthovanadate, 10 μM adenosine triphosphate (ATP), 0.5 μM substrate peptide, 0.1 mg/ml phosphatidyl serine, 0.01 mg/ml diacylglycerol, 1% (v/v) dimethyl sulfoxide]. The reaction was stopped by adding 5 μl of an EDTA/detection solution [50 mM Hepes/NaOH pH 7.4, 400 mM KF, 40 mM EDTA, 0.1% bovine serum albumin, 100 nM streptavidin-XLlent (from Cisbio, #611SAXLB), 1.8 nM anti-phospho PKC substrate crypate conjugate antibody (CisBio: #61P03KAZ)]. […]
(In general: TR-FRET usually uses a lanthanide donor and a delayed reading to cut background.)

T1 sequence (Q04759 whole entry): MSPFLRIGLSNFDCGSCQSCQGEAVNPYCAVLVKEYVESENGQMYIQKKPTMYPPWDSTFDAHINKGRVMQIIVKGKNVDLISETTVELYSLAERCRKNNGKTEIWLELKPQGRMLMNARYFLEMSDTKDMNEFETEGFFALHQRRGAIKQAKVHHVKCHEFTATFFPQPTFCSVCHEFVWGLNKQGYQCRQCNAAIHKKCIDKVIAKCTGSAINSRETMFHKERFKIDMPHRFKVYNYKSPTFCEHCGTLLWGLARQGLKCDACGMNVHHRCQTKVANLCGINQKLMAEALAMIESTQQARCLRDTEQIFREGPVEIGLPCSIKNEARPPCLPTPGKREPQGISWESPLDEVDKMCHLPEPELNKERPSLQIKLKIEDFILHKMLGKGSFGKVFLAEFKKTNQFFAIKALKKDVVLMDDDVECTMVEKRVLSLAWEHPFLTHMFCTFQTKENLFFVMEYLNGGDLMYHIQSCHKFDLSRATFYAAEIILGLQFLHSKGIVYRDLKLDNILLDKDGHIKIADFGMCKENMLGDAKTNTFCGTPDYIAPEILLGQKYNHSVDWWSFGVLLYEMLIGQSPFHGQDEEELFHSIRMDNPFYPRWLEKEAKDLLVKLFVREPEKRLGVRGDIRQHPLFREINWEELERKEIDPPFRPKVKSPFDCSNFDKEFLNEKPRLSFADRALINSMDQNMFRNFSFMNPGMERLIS

The inhibition is the relative decrease from the control value, in per cent. A high value points to a strong effect. Consider `Clc1cccc(-c2cnc3ccc(OCCCN4CCOCC4)nn23)c1` [Example 1, 3-(3-Chlorophenyl)-6-(3-morpholin-4-ylpropoxy)imidazo[1,2-b]pyridazine], for which the inhibition at 10 µM in assay [1] (10 μM) was over 95%. The IC50 in assay [1] (IL-2 ELISA, read-out: IC50 (concentration for 50% inhibition of IL-2)) turned out to be 1300 nM; on protein kinase C theta it was 4100 nM.
